Source: PubChem BioAssay (NCI)
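Briefly, cells in 96-well plates were exposed to five compound concentrations for 48 h, and endpoints were estimated by linear interpolation. Abbreviation: GI50, concentration required for 50% inhibition of growth. TGI marks complete inhibition of growth.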

Legend:
Assay in all cases: NCI anticancer screen, dose series, 48 h
786-0 renal = tested on: 786-0 renal
A498 renal = tested on: A498 renal
A549 NSCLC = tested on: A549 NSCLC
ACHN renal = tested on: ACHN renal
BT-549 breast = tested on: BT-549 breast
CCRF-CEM leukemia = tested on: CCRF-CEM leukemia
COLO 205 colon = tested on: COLO 205 colon
DU-145 prostate = tested on: DU-145 prostate
EKVX NSCLC = tested on: EKVX NSCLC
HCC-2998 colon = tested on: HCC-2998 colon
HCT-116 colon = tested on: HCT-116 colon
HCT-15 colon = tested on: HCT-15 colon
HOP-62 NSCLC = tested on: HOP-62 NSCLC
HOP-92 NSCLC = tested on: HOP-92 NSCLC
HS 578T breast = tested on: HS 578T breast
HT29 colon = tested on: HT29 colon
IGROV1 ovarian = tested on: IGROV1 ovarian
KM12 colon = tested on: KM12 colon
LOX IMVI melanoma = tested on: LOX IMVI melanoma
M14 melanoma = tested on: M14 melanoma
MALME-3M melanoma = tested on: MALME-3M melanoma
MCF7 breast = tested on: MCF7 breast
MDA-MB-231 breast = tested on: MDA-MB-231 breast
MDA-MB-435 = tested on: MDA-MB-435
MDA-N = tested on: MDA-N
MOLT-4 leukemia = tested on: MOLT-4 leukemia
NCI-H226 lung = tested on: NCI-H226 lung
NCI-H23 lung = tested on: NCI-H23 lung
NCI-H460 lung = tested on: NCI-H460 lung
NCI-H522 lung = tested on: NCI-H522 lung
NCI/ADR-RES ovarian = tested on: NCI/ADR-RES ovarian
OVCAR-3 ovarian = tested on: OVCAR-3 ovarian
OVCAR-5 ovarian = tested on: OVCAR-5 ovarian
OVCAR-8 ovarian = tested on: OVCAR-8 ovarian
PC-3 prostate = tested on: PC-3 prostate
RXF 393 renal = tested on: RXF 393 renal
SF-268 CNS = tested on: SF-268 CNS
SF-295 CNS = tested on: SF-295 CNS
SF-539 CNS = tested on: SF-539 CNS
SK-MEL-2 melanoma = tested on: SK-MEL-2 melanoma
SK-MEL-28 melanoma = tested on: SK-MEL-28 melanoma
SK-MEL-5 melanoma = tested on: SK-MEL-5 melanoma
SK-OV-3 ovarian = tested on: SK-OV-3 ovarian
SN12C renal = tested on: SN12C renal
SNB-19 CNS = tested on: SNB-19 CNS
SNB-75 CNS = tested on: SNB-75 CNS
SW-620 colon = tested on: SW-620 colon
T-47D breast = tested on: T-47D breast
TK-10 renal = tested on: TK-10 renal
U251 CNS = tested on: U251 CNS
UACC-257 melanoma = tested on: UACC-257 melanoma
UACC-62 melanoma = tested on: UACC-62 melanoma
UO-31 renal = tested on: UO-31 renal
CAKI-1 renal = tested on: CAKI-1 renal
HL-60(TB) leukemia = tested on: HL-60(TB) leukemia
K-562 leukemia = tested on: K-562 leukemia
OVCAR-4 ovarian = tested on: OVCAR-4 ovarian
RPMI-8226 leukemia = tested on: RPMI-8226 leukemia
SR leukemia = tested on: SR leukemia

O=C(/C=C/c1ccc(O)c(O)c1)OCCc1ccc2ccccc2c1
TGI (786-0 renal): 20.9 µM | TGI (A498 renal): 28.4 µM | TGI (A549 NSCLC): 24.9 µM | TGI (ACHN renal): 15.1 µM | TGI (BT-549 breast): 15.7 µM | TGI (CCRF-CEM leukemia): 23.8 µM | TGI (COLO 205 colon): 16.4 µM | TGI (DU-145 prostate): 24.3 µM | TGI (EKVX NSCLC): 28.7 µM | TGI (HCC-2998 colon): 30.9 µM | TGI (HCT-116 colon): 17.9 µM | TGI (HCT-15 colon): 10.2 µM | TGI (HOP-62 NSCLC): 26.4 µM | TGI (HOP-92 NSCLC): 19.6 µM | TGI (HS 578T breast): 24.1 µM | TGI (HT29 colon): 25.6 µM | TGI (IGROV1 ovarian): 10.4 µM | TGI (KM12 colon): 12.9 µM | TGI (LOX IMVI melanoma): 20.8 µM | TGI (M14 melanoma): 16.9 µM | TGI (MALME-3M melanoma): 23.1 µM | TGI (MCF7 breast): 8.91 µM | TGI (MDA-MB-231 breast): 24.3 µM | TGI (MDA-MB-435): 6.63 µM | TGI (MDA-N): 5.45 µM | TGI (MOLT-4 leukemia): 11.3 µM | TGI (NCI-H226 lung): 32.3 µM | TGI (NCI-H23 lung): 14.7 µM | TGI (NCI-H460 lung): 23.7 µM | TGI (NCI-H522 lung): 8.35 µM | TGI (NCI/ADR-RES ovarian): 18.3 µM | TGI (OVCAR-3 ovarian): 12.4 µM | TGI (OVCAR-5 ovarian): 29.7 µM | TGI (OVCAR-8 ovarian): 26.6 µM | TGI (PC-3 prostate): 20.5 µM | TGI (RXF 393 renal): 21.6 µM | TGI (SF-268 CNS): 27 µM | TGI (SF-295 CNS): 23.7 µM | TGI (SF-539 CNS): 19.1 µM | TGI (SK-MEL-2 melanoma): 4.35 µM | TGI (SK-MEL-28 melanoma): 21.8 µM | TGI (SK-MEL-5 melanoma): 13.2 µM | TGI (SK-OV-3 ovarian): 26.3 µM | TGI (SN12C renal): 17.8 µM | TGI (SNB-19 CNS): 25.9 µM | TGI (SNB-75 CNS): 8.22 µM | TGI (SW-620 colon): 20.7 µM | TGI (T-47D breast): 18.7 µM | TGI (TK-10 renal): 20.4 µM | TGI (U251 CNS): 23.8 µM | TGI (UACC-257 melanoma): 23.3 µM | TGI (UACC-62 melanoma): 13.9 µM | TGI (UO-31 renal): 13.1 µM

CNC(=O)c1ncccc1Nc1nc(Nc2cc3c(cc2OC)CCCN3C(=O)CN(C)C)nc2[nH]ccc12
GI50 (786-0 renal): 3.23 µM | TGI (786-0 renal): 7.02 µM | GI50 (A498 renal): 1.18 µM | TGI (A498 renal): 5.46 µM | GI50 (A549 NSCLC): 0.845 µM | TGI (A549 NSCLC): 4.39 µM | GI50 (ACHN renal): 3.23 µM | TGI (ACHN renal): 6.72 µM | GI50 (BT-549 breast): 2.7 µM | TGI (BT-549 breast): 6.04 µM | GI50 (CAKI-1 renal): 2.74 µM | TGI (CAKI-1 renal): 7.22 µM | GI50 (CCRF-CEM leukemia): 0.568 µM | TGI (CCRF-CEM leukemia): 2.96 µM | GI50 (COLO 205 colon): 0.127 µM | TGI (COLO 205 colon): 1.18 µM | GI50 (DU-145 prostate): 0.753 µM | TGI (DU-145 prostate): 3.02 µM | GI50 (EKVX NSCLC): 1.55 µM | TGI (EKVX NSCLC): 6.52 µM | GI50 (HCC-2998 colon): 0.518 µM | TGI (HCC-2998 colon): 4.12 µM | GI50 (HCT-116 colon): 1.11 µM | TGI (HCT-116 colon): 4.89 µM | GI50 (HCT-15 colon): 1.84 µM | TGI (HCT-15 colon): 9.35 µM | GI50 (HL-60(TB) leukemia): 0.0921 µM | TGI (HL-60(TB) leukemia): 0.803 µM | GI50 (HOP-62 NSCLC): 1.17 µM | TGI (HOP-62 NSCLC): 4.73 µM | GI50 (HOP-92 NSCLC): 0.049 µM | TGI (HOP-92 NSCLC): 1.98 µM | GI50 (HS 578T breast): 1.21 µM | TGI (HS 578T breast): 5.69 µM | GI50 (HT29 colon): 0.0491 µM | TGI (HT29 colon): 1.25 µM | GI50 (IGROV1 ovarian): 3.52 µM | TGI (IGROV1 ovarian): 8.66 µM | GI50 (K-562 leukemia): 1.88 µM | TGI (K-562 leukemia): 7.55 µM | GI50 (KM12 colon): 0.728 µM | TGI (KM12 colon): 3.04 µM | GI50 (LOX IMVI melanoma): 1.26 µM | TGI (LOX IMVI melanoma): 4.77 µM | GI50 (M14 melanoma): 1.87 µM | TGI (M14 melanoma): 5.78 µM | GI50 (MALME-3M melanoma): 3.65 µM | TGI (MALME-3M melanoma): 7.84 µM | GI50 (MCF7 breast): 0.073 µM | TGI (MCF7 breast): 2.73 µM | GI50 (MDA-MB-231 breast): 1.58 µM | TGI (MDA-MB-231 breast): 5.3 µM | GI50 (MDA-MB-435): 0.244 µM | TGI (MDA-MB-435): 1.78 µM | GI50 (MOLT-4 leukemia): 1.05 µM | TGI (MOLT-4 leukemia): 5.76 µM | GI50 (NCI-H226 lung): 1.91 µM | TGI (NCI-H226 lung): 5.78 µM | GI50 (NCI-H23 lung): 0.476 µM | TGI (NCI-H23 lung): 3.07 µM | GI50 (NCI-H460 lung): 0.613 µM | TGI (NCI-H460 lung): 3.77 µM | GI50 (NCI-H522 lung): 0.638 µM | TGI (NCI-H522 lung): 2.84 µM | GI50 (NCI/ADR-RES ovarian): 0.724 µM | TGI (NCI/ADR-RES ovarian): 2.74 µM | GI50 (OVCAR-3 ovarian): 0.986 µM | TGI (OVCAR-3 ovarian): 3.39 µM | GI50 (OVCAR-4 ovarian): 2.98 µM | TGI (OVCAR-4 ovarian): 6.67 µM | GI50 (OVCAR-5 ovarian): 0.325 µM | TGI (OVCAR-5 ovarian): 4.18 µM | GI50 (OVCAR-8 ovarian): 1.25 µM | TGI (OVCAR-8 ovarian): 5.1 µM | GI50 (PC-3 prostate): 1.5 µM | TGI (PC-3 prostate): 8.03 µM | GI50 (RPMI-8226 leukemia): 0.842 µM | TGI (RPMI-8226 leukemia): 3.89 µM | GI50 (RXF 393 renal): 0.974 µM | TGI (RXF 393 renal): 3.8 µM | GI50 (SF-268 CNS): 1.46 µM | TGI (SF-268 CNS): 5.4 µM | GI50 (SF-295 CNS): 1.82 µM | TGI (SF-295 CNS): 5.94 µM | GI50 (SF-539 CNS): 1.57 µM | TGI (SF-539 CNS): 5.13 µM | GI50 (SK-MEL-2 melanoma): 0.877 µM | TGI (SK-MEL-2 melanoma): 3.89 µM | GI50 (SK-MEL-28 melanoma): 3.18 µM | TGI (SK-MEL-28 melanoma): 6.77 µM | GI50 (SK-MEL-5 melanoma): 0.618 µM | TGI (SK-MEL-5 melanoma): 3.37 µM | GI50 (SK-OV-3 ovarian): 1.67 µM | TGI (SK-OV-3 ovarian): 5.86 µM | GI50 (SN12C renal): 3.36 µM | TGI (SN12C renal): 7.37 µM | GI50 (SNB-19 CNS): 3.49 µM | TGI (SNB-19 CNS): 11.2 µM | GI50 (SNB-75 CNS): 3.03 µM | TGI (SNB-75 CNS): 6.43 µM | GI50 (SR leukemia): 0.104 µM | TGI (SR leukemia): 2.96 µM | GI50 (SW-620 colon): 0.224 µM | TGI (SW-620 colon): 3.22 µM | GI50 (T-47D breast): 3.37 µM | TGI (T-47D breast): 9.19 µM | GI50 (TK-10 renal): 2.22 µM | TGI (TK-10 renal): 6.7 µM | GI50 (U251 CNS): 2.02 µM | TGI (U251 CNS): 5.38 µM | GI50 (UACC-257 melanoma): 0.395 µM | TGI (UACC-257 melanoma): 4.71 µM | GI50 (UACC-62 melanoma): 3.07 µM | TGI (UACC-62 melanoma): 6.45 µM | GI50 (UO-31 renal): 2.71 µM | TGI (UO-31 renal): 6.45 µM
